Data as given in ChEMBL document CHEMBL3044586, “Design, synthesis, and anticonvulsant screening of some substituted piperazine and aniline derivatives of 5-phenyl-oxazolidin-2,4-diones and 5,5-diphenylimidazolidin-2,4 diones” (Med Chem Res, 2012).
Activity calls are given as the source filed them. No cut-off for these calls is given here.

How the values were obtained:
Mus musculus [1] = assay: Anticonvulsant activity in Mus musculus Swiss albino (mouse) assessed as reduction in maximal electroshock-induced seizure at 30 mg/kg, ip measured after 4 hr; assay type: functional, organism-based; set-up: dose 30 mg/kg
Mus musculus [2] = assay: Anticonvulsant activity in Mus musculus Swiss albino (mouse) assessed as reduction in maximal electroshock-induced seizure at 30 mg/kg, ip measured after 0.5 hr; assay type: functional, organism-based; set-up: dose 30 mg/kg
Rattus norvegicus [3] = assay: Neurotoxicity against Rattus norvegicus Wistar (rat) assessed as inability to maintain equilibrium on rod at 30 mg/kg, po measured after 4 hr by rotarod test; assay type: toxicity, organism-based; set-up: dose 30 mg/kg, route oral; settings: in vivo
Rattus norvegicus [4] = assay: Neurotoxicity against Rattus norvegicus Wistar (rat) assessed as inability to maintain equilibrium on rod at 30 mg/kg, po measured after 0.5 hr by rotarod test; assay type: toxicity, organism-based; set-up: dose 30 mg/kg, route oral; settings: in vivo
Rattus norvegicus [5] = assay: Anticonvulsant activity in Rattus norvegicus Wistar (rat) assessed as reduction in maximal electroshock-induced seizures at 30 mg/kg, po measured after 4 hr; assay type: functional, organism-based; set-up: dose 30 mg/kg
Rattus norvegicus [6] = assay: Anticonvulsant activity in Rattus norvegicus Wistar (rat) assessed as reduction in maximal electroshock-induced seizures at 30 mg/kg, po measured after 0.5 hr; assay type: functional, organism-based; set-up: dose 30 mg/kg
Mus musculus [7] = assay: Neurotoxicity against Mus musculus Swiss albino (mouse) assessed as inability to maintain equilibrium on rod at 100 mg/kg, ip measured after 4 hr by rotarod test; assay type: toxicity, organism-based; set-up: dose 100 mg/kg, route intraperitoneal; settings: in vivo
Mus musculus [8] = assay: Neurotoxicity against Mus musculus Swiss albino (mouse) assessed as inability to maintain equilibrium on rod at 100 mg/kg, ip measured after 0.5 hr by rotarod test; assay type: toxicity, organism-based; set-up: dose 100 mg/kg, route intraperitoneal; settings: in vivo
Mus musculus [9] = assay: Neurotoxicity against Mus musculus Swiss albino (mouse) assessed as inability to maintain equilibrium on rod at 30 to 300 mg/kg, ip measured after 0.5 hr by rotarod test; assay type: toxicity, organism-based; set-up: dose 30-300 mg/kg, route intraperitoneal; settings: in vivo
Mus musculus [10] = assay: Anticonvulsant activity in Mus musculus Swiss albino (mouse) assessed as reduction in maximal electroshock-induced seizure at 100 mg/kg, ip measured after 0.5 hr; assay type: functional, organism-based; set-up: dose 100 mg/kg
Mus musculus [11] = assay: Neurotoxicity against Mus musculus Swiss albino (mouse) assessed as inability to maintain equilibrium on rod at 30 to 300 mg/kg, ip measured after 4 hr by rotarod test; assay type: toxicity, organism-based; set-up: dose 30-300 mg/kg, route intraperitoneal; settings: in vivo
Rattus norvegicus [12] = assay: Presynaptic agonist activity at 5HT1A receptor in Rattus norvegicus Wistar (rat) assessed as change in rectal temperature at 20 mg/kg, ip measured after 120 min (reference value: 0.0 +/- 0.1 degC); assay type: functional, organism-based; set-up: dose 20 mg/kg
Rattus norvegicus [13] = assay: Presynaptic agonist activity at 5HT1A receptor in Rattus norvegicus Wistar (rat) assessed as change in rectal temperature at 10 mg/kg, ip measured after 120 min (reference value: 0.0 +/- 0.1 degC); assay type: functional, organism-based; set-up: dose 10 mg/kg
Rattus norvegicus [14] = assay: Presynaptic agonist activity at 5HT1A receptor in Rattus norvegicus Wistar (rat) assessed as change in rectal temperature at 20 mg/kg, ip measured after 90 min (reference value: -0.2 +/- 0.1 degC); assay type: functional, organism-based; set-up: dose 20 mg/kg
Rattus norvegicus [15] = assay: Presynaptic agonist activity at 5HT1A receptor in Rattus norvegicus Wistar (rat) assessed as change in rectal temperature at 10 mg/kg, ip measured after 90 min (reference value: -0.2 +/- 0.1 degC); assay type: functional, organism-based; set-up: dose 10 mg/kg
Rattus norvegicus [16] = assay: Presynaptic agonist activity at 5HT1A receptor in Rattus norvegicus Wistar (rat) assessed as change in rectal temperature at 20 mg/kg, ip measured after 60 min (reference value: 0.0 +/- 0.1 degC); assay type: functional, organism-based; set-up: dose 20 mg/kg
Rattus norvegicus [17] = assay: Presynaptic agonist activity at 5HT1A receptor in Rattus norvegicus Wistar (rat) assessed as change in rectal temperature at 10 mg/kg, ip measured after 60 min (reference value: 0.0 +/- 0.1 degC); assay type: functional, organism-based; set-up: dose 10 mg/kg
Rattus norvegicus [18] = assay: Presynaptic agonist activity at 5HT1A receptor in Rattus norvegicus Wistar (rat) assessed as change in rectal temperature at 20 mg/kg, ip measured after 30 min (reference value: -0.1 +/- 0.1 degC); assay type: functional, organism-based; set-up: dose 20 mg/kg
Rattus norvegicus [19] = assay: Presynaptic agonist activity at 5HT1A receptor in Rattus norvegicus Wistar (rat) assessed as change in rectal temperature at 10 mg/kg, ip measured after 30 min (reference value: -0.1 +/- 0.1 degC); assay type: functional, organism-based; set-up: dose 10 mg/kg
Mus musculus [20] = assay: Antagonist activity at 5HT2A receptor in ip dosed Mus musculus Swiss albino (mouse) assessed as inhibition of +/-DOI-induced head twitching administered 60 min prior to +/-DOI-challenge measured for 20 min; assay type: functional; settings: read-out: ID50 (the source's name)
Rattus norvegicus [21] = assay: Postsynaptic antagonist activity at 5HT1A receptor in Rattus norvegicus Wistar (rat) assessed as inhibition of 8-OH-DPAT-induced lower lip retraction at 10 to 20 mg/kg, ip administered 45 min prior to 8-OH-DPAT-challenge measured after 15 min; assay type: functional, organism-based
Rattus norvegicus [22] = assay: Presynaptic antagonist activity at 5HT1A receptor in Rattus norvegicus Wistar (rat) assessed as change in rectal temperature at 0.1 mg/kg, sc measured after 90 min (reference value: -0.2 +/- 0.1 degC); assay type: functional, organism-based; set-up: dose 0.1 mg/kg
Rattus norvegicus [23] = assay: Presynaptic antagonist activity at 5HT1A receptor in Rattus norvegicus Wistar (rat) assessed as change in rectal temperature at 0.1 mg/kg, sc measured after 60 min (reference value: 0.0 +/- 0.1 degC); assay type: functional, organism-based; set-up: dose 0.1 mg/kg
Rattus norvegicus [24] = assay: Antagonist activity at 5HT1A receptor in Rattus norvegicus Wistar (rat) assessed as change in rectal temperature at 0.1 mg/kg, sc measured after 30 min (reference value: -0.1 +/- 0.1 degC); assay type: functional, organism-based; set-up: dose 0.1 mg/kg
Rattus norvegicus [25] = assay: Postsynaptic antagonist activity at 5HT1A receptor in Rattus norvegicus Wistar (rat) assessed as inhibition of 8-OH-DPAT-induced lower lip retraction at 0.1 mg/kg, sc administered 45 min prior to 8-OH-DPAT-challenge measured after 15 min; assay type: functional, organism-based; set-up: dose 0.1 mg/kg
Rattus norvegicus [26] = assay: Presynaptic antagonist activity at 5HT1A receptor in Rattus norvegicus Wistar (rat) assessed as change in rectal temperature at 0.1 mg/kg, sc measured after 120 min (reference value: 0.0 +/- 0.1 degC); assay type: functional, organism-based; set-up: dose 0.1 mg/kg
Mus musculus [27] = assay: Anticonvulsant activity in Mus musculus Swiss albino (mouse) assessed as reduction in maximal electroshock-induced seizure at 100 mg/kg, ip measured after 4 hr; assay type: functional, organism-based; set-up: dose 100 mg/kg
Mus musculus [28] = assay: Anticonvulsant activity in Mus musculus Swiss albino (mouse) assessed as reduction in maximal electroshock-induced seizure at 300 mg/kg, ip measured after 0.5 hr; assay type: functional, organism-based; set-up: dose 300 mg/kg
Mus musculus [29] = assay: Binding affinity to 5HT2A receptor in ip dosed Mus musculus Swiss albino (mouse) assessed as effect on +/-DOI-induced head twitching administered 60 min prior to +/-DOI-challenge measured for 20 min; assay type: functional, organism-based
Rattus norvegicus [30] = assay: Postsynaptic agonist activity at 5HT1A receptor in Rattus norvegicus Wistar (rat) assessed as increase in lower lip retraction at 10 to 20 mg/kg, ip measured after 15 min; assay type: functional, organism-based
Mus musculus [31] = assay: Anticonvulsant activity in Mus musculus Swiss albino (mouse) assessed as reduction in maximal electroshock-induced seizure at 300 mg/kg, ip measured after 4 hr; assay type: functional, organism-based; set-up: dose 300 mg/kg
Mus musculus [32] = assay: Anticonvulsant activity in Mus musculus Swiss albino (mouse) assessed as reduction in maximal electroshock-induced seizure at 30 to 300 mg/kg, ip measured after 0.5 hr; assay type: functional, organism-based
Mus musculus [33] = assay: Neurotoxicity against Mus musculus Swiss albino (mouse) assessed as inability to maintain equilibrium on rod at 300 mg/kg, ip measured after 4 hr by rotarod test; assay type: toxicity, organism-based; set-up: dose 300 mg/kg, route intraperitoneal; settings: in vivo

O=C1NC(=O)C(c2ccccc2)(c2ccccc2)N1 [PHENYTOIN]
Activity (Mus musculus [1]): Active
Activity (Mus musculus [2]): Active
Activity (Rattus norvegicus [3]): Non-toxic
Activity (Rattus norvegicus [4]): Non-toxic
Activity (Rattus norvegicus [5]): Active
Activity (Rattus norvegicus [6]): Active
Activity (Mus musculus [7]): Toxic
Activity (Mus musculus [8]): Toxic

O=C1OC(c2ccccc2)C(=O)N1CCNc1ccc(Cl)cc1 (configuration not stated)
Activity (Mus musculus [9]): Non-toxic
Activity (Mus musculus [1]): Active
Activity (Mus musculus [10]): Active
Activity (Rattus norvegicus [3]): Non-toxic
Activity (Rattus norvegicus [4]): Non-toxic
Activity (Rattus norvegicus [5]): Active
Activity (Rattus norvegicus [6]): Active
Activity (Mus musculus [11]): Non-toxic
deltaT (Rattus norvegicus [12]): -1.3 °C
deltaT (Rattus norvegicus [13]): -0.5 °C
deltaT (Rattus norvegicus [14]): -1.5 °C
deltaT (Rattus norvegicus [15]): -0.7 °C
deltaT (Rattus norvegicus [16]): -1.3 °C
deltaT (Rattus norvegicus [17]): -0.5 °C
deltaT (Rattus norvegicus [18]): -1.2 °C
deltaT (Rattus norvegicus [19]): -0.2 °C
ED50 (Mus musculus [20]): 8 mg/kg
inhibition (Rattus norvegicus [21]): Active

O=C1OC(c2ccccc2)C(=O)N1CCNc1ccc(O)cc1 (configuration not stated)
Activity (Mus musculus [9]): Non-toxic
Activity (Mus musculus [1]): Active
Activity (Mus musculus [10]): Active
Activity (Rattus norvegicus [3]): Non-toxic
Activity (Rattus norvegicus [4]): Non-toxic
Activity (Rattus norvegicus [5]): Active
Activity (Rattus norvegicus [6]): Active
Activity (Mus musculus [11]): Non-toxic
deltaT (Rattus norvegicus [12]): -1.1 °C
deltaT (Rattus norvegicus [13]): -0.6 °C
deltaT (Rattus norvegicus [14]): -1.6 °C
deltaT (Rattus norvegicus [15]): -0.7 °C
deltaT (Rattus norvegicus [16]): -1.2 °C
deltaT (Rattus norvegicus [17]): -0.6 °C
deltaT (Rattus norvegicus [18]): -1 °C
deltaT (Rattus norvegicus [19]): -0.4 °C
ED50 (Mus musculus [20]): 11 mg/kg
inhibition (Rattus norvegicus [21]): Active

COc1ccccc1N1CCN(CCN(C(=O)C2CCCCC2)c2ccccn2)CC1
deltaT (Rattus norvegicus [22]): 0.1 °C
deltaT (Rattus norvegicus [23]): 0.2 °C
deltaT (Rattus norvegicus [24]): 0.2 °C
inhibition (Rattus norvegicus [25]): Active
deltaT (Rattus norvegicus [26]): 0.2 °C

COc1ccc(NCCN2C(=O)NC(c3ccccc3)(c3ccccc3)C2=O)cc1
Activity (Mus musculus [9]): Non-toxic
Activity (Mus musculus [27]): Active
Activity (Mus musculus [28]): Active
Activity (Mus musculus [10]): Active
Activity (Rattus norvegicus [3]): Non-toxic
Activity (Rattus norvegicus [4]): Non-toxic
Activity (Rattus norvegicus [5]): inactive
Activity (Rattus norvegicus [6]): inactive
Activity (Mus musculus [11]): Non-toxic
deltaT (Rattus norvegicus [12]): -1.3 °C
deltaT (Rattus norvegicus [13]): -0.6 °C
deltaT (Rattus norvegicus [14]): -1.8 °C
deltaT (Rattus norvegicus [15]): -0.8 °C
deltaT (Rattus norvegicus [16]): -1.5 °C
deltaT (Rattus norvegicus [17]): -0.6 °C
deltaT (Rattus norvegicus [18]): -1.2 °C
deltaT (Rattus norvegicus [19]): -0.5 °C
Activity (Mus musculus [29]): inactive
Activity (Rattus norvegicus [30]): Active

Cc1ccc(N2CCN(CCN3C(=O)NC(c4ccccc4)(c4ccccc4)C3=O)CC2)cc1
Activity (Mus musculus [31]): Active
Activity (Mus musculus [32]): inactive
Activity (Mus musculus [33]): Toxic
Activity (Mus musculus [8]): Toxic
